In patent publication US7002012B2, “Substituted (1,3-bis(cyclohexylmethyl)-1,2,3,6-tetrahydro-2,6-dioxo-9h-purin-8-YI)phenyl derivatives, their preparation and their use in the treatment of inflammatory conditions and immune disorders” (SmithKline Beecham Corporation, priority 1997, dated 2006):

Key:
[1] = tested on: male Lewis rats; assay: Acetic Acid Colitis Assay; assay type: in vivo, rat; details: for ACETIC ACID COLITIS (24 hr) ACTIVE DOSE [MG/KG] (ROUTE) TISSUE WEIGHT: colon weight (edema); for ACETIC ACID COLITIS (24 hr) ACTIVE DOSE [MG/KG] (ROUTE) MPO: mucosal MPO levels
Experimental: Compounds were administered either orally or rectally 24, 16 and 4 hours prior to the 40 second instillation of 3% acetic acid solution in the proximal 6 cm of the colon under light anesthesia. The colon was immediately washed with 5 cc of saline. 24 hours later the rats were sacrificed and 6 cm of the proximal colon was excised weighed for edema. Neutrophil inflammation was determined by measuring MPO levels in the scraped colonic mucosa from these rats.

[2] = tested on: male Lewis rats; assay: Carrageenan Pleurisy Assay; assay type: in vivo, rat; details: for CARRAGEENAN PLEURISY (4 hr) LOCAL ED50 (MG/RAT) CELLS: inhibition of inflammatory cells (neutrophils) in pleural exudate four hours after carrageenan 0.075 mg/rat; for CARRAGEENAN PLEURISY (4 hr) LOCAL ED50 (MG/RAT) CELLS / CARRAGEENAN PLEURISY (4 hr) LOCAL ED50 (MG/RAT) EDEMA: local administration; for CARRAGEENAN PLEURISY (4 hr) LOCAL ED50 (MG/RAT) EDEMA: inhibition of pleural edema four hours after carrageenan 0.075 mg/rat
Experimental: The antiinflammatory activity of compounds of the invention was determined by the procedure of Vinegar, R, et al., Proc. Soc. Exp. Biol. Med., 1981, 168, 24–32, using male Lewis rats of 150±±}20 grams. The carrageenan dose was 0.075 mg/rat. Pleural exudate was harvested four hours after injection of carrageenan. Acute antiinflammatory activity was determined by inhibition of pleural edema and inflammatory cells (neutrophils) from a negative (vehicle) control group.

[3] = tested on: Male CD-1 mice; assay: In Vivo Septic Shock Model: C Parvum/LPS Shock; details: oral dose 75 mg/kg, 2 hours before the LPS and at the same time as the LPS
Experimental: Male CD-1 mice, 25–30 g (Charles River: Raleigh, N.C.), are injected intravenously (i.v.) with 100 μμ}g killed C. Parvum (Coparvax; Burroughs Wellcome, RTP, NC).Ten days later the mice are injected i.v. with 20 μμ}g E. Coli 026:B6 lipopolysaccharide (LPS; Difco Labs, Detroit, Mich.) in the presence of the analgesic butorphenol (150 μμ}g per mouse).
The test compounds are dissolved in dimethyl sulphoxide and diluted into 0.5% methyl cellulose and then dosed orally 2 hours before the LPS and at the same time as the LPS.

[4] = ic = intracolonic administration

Compound | CARRAGEENAN PLEURISY (4 hr) LOCAL ED50 (MG/RAT) CELLS [2] | CARRAGEENAN PLEURISY (4 hr) LOCAL ED50 (MG/RAT) EDEMA [2] [MG/RAT] | other results
C[C@@H]1C[C@H]2[C@@H]3CCC4=CC(=O)C=C[C@]4(C)[C@@]3(F)[C@@H](O)C[C@]2(C)[C@@]1(O)C(=O)CO [Dexamethasone, reference compound] | 0.02 MG/RAT | 0.015 | ACETIC ACID COLITIS (24 hr) ACTIVE DOSE [MG/KG] (ROUTE) TISSUE WEIGHT [1, 4]: 0.17 mg/kg; ACETIC ACID COLITIS (24 hr) ACTIVE DOSE [MG/KG] (ROUTE) MPO [1, 4]: 0.03 mg/kg
COCCOCCOCCOCCOCCOCCOCCOCCOCCOCCOC(=O)/C=C/c1ccc(-c2nc3c(=O)n(CC4CCCCC4)c(=O)n(CC4CCCCC4)c3[nH]2)cc1 [Example 9, (E)-4-(1,3-Bis(cyclohexylmethyl)-1,2,3,6-tetrahydro-2,6-dioxo-9H-purin-8-yl)cinnamic Acid Decaethylene Glycol Methyl Ether Ester] | 0.02 MG/RAT | 0.2 | ACETIC ACID COLITIS (24 hr) ACTIVE DOSE [MG/KG] (ROUTE) TISSUE WEIGHT [1, 4]: 5.0 mg/kg; ACETIC ACID COLITIS (24 hr) ACTIVE DOSE [MG/KG] (ROUTE) MPO [1, 4]: 5.0 mg/kg; % Survivors [3]: 50%; Alive/Total [3]: 4/8
COCCOCCOCCOCCOCCOCCOCCOCCOCCOC(=O)/C=C/c1ccc(-c2nc3c(=O)n(CC4CCCCC4)c(=O)n(CC4CCCCC4)c3[nH]2)cc1 [Example 10, (E)-4-(1,3-Bis(cyclohexylmethyl)-1,2,3,6-tetrahydro-2,6-dioxo-9H-purin-8-yl)cinnamic Acid Nonaethylene Glycol Methyl Ether Ester] | 0.5 MG/RAT | 0.5 | ACETIC ACID COLITIS (24 hr) ACTIVE DOSE [MG/KG] (ROUTE) TISSUE WEIGHT ([1]; po = oral administration): 50 mg/kg; ACETIC ACID COLITIS (24 hr) ACTIVE DOSE [MG/KG] (ROUTE) MPO ([1]; po = oral administration): 50 mg/kg
O=C(O)/C=C/c1ccc(-c2nc3c(=O)n(CC4CCCCC4)c(=O)n(CC4CCCCC4)c3[nH]2)cc1 [compound 1, (E)-4-[1,3 Bis(cyclohexylmethyl)-1,2,3,6-tetrahydro-2,6-dioxo-9H-purin-8-yl]cinnamic acid, reference compound] | – | – | activity in Acetic Acid Colitis Assay [1]: inactive; activity in Carrageenan Pleurisy Assay [2]: inactive; % Survivors [3]: 25%; Alive/Total [3]: 2/8
(E)-4-(1,3-Bis(cyclohexylmethyl)-1,2,3,6-tetrahydro-2,6-dioxo-9H-purin-8-yl)cinnamic Acid Polyethylene Glycol (n=13) Ester [Example 18] | 0.1 MG/RAT | 0.1 | –
(E)-4-(1,3-Bis(cyclohexylmethyl)-1,2,3,6-tetrahydro-2,6-dioxo-9H-purin-8-yl)cinnamic Acid Polyethylene Glycol (n=15) Methyl Ether Ester [Example 15] | 0.4 MG/RAT | 0.2 | ACETIC ACID COLITIS (24 hr) ACTIVE DOSE [MG/KG] (ROUTE) TISSUE WEIGHT ([1]; po = oral administration): inactive; ACETIC ACID COLITIS (24 hr) ACTIVE DOSE [MG/KG] (ROUTE) MPO ([1]; po = oral administration): 50 mg/kg
(E)-4-(1,3-Bis(cyclohexylmethyl)-1,2,3,6-tetrahydro-2,6-dioxo-9H-purin-8-yl)cinnamic Acid Polyethylene Glycol (n=18.9) Ester [Example 17] | 0.1 MG/RAT | 0.1 | –
(E)-4-(1,3-Bis(cyclohexylmethyl)-1,2,3,6-tetrahydro-2,6-dioxo-9H-purin-8-yl)cinnamic Acid Polyethylene Glycol (n=32.2) Ester [Example 16] | 0.2 MG/RAT | 0.2 | –
(E)-4-(1,3-Bis(cyclohexylmethyl)-1,2,3,6-tetrahydro-2,6-dioxo-9H-purin-8-yl)cinnamic Acid Polyethylene Glycol (n=41.5) Methyl Ether Ester [Example 14] | Inactive | 0.5 | –
